Data taken from patent US4303785A, “Antitumor anthracycline antibiotics” (priority 1978, dated 1981).
Converted amounts (≈) assume the structure as drawn. Like-named read-outs stand apart in the source and are kept apart here.

Key:
L1210 leukemia cells = test: Growth inhibitory effect on L1210 cells in culture (Table 4); format: cell-based; conditions: Mus musculus, L1210, read-out: Inhibition Rate (growth)
Protocol: For example, L1210 cells (5×10^4 cells/ml.) were inoculated in RPMI 1640 medium (Roswell Park Memorial Institute 1640) containing 20% calf serum and cultivated at 37° C. in the presence of 0.1 and 0.5 μg./ml. of the test compounds in a CO2 incubator.

L1210 cells [1] = test: Inhibition of 14C-uridine and 14C-thymidine incorporation (nucleic acid synthesis) in L1210 cells in culture (Table 5); format: cell-based; conditions: Mus musculus, L1210, 1 h
Protocol: The effect of the tetrahydropyranyl ether derivatives of formula I' on nucleic acid synthesis was examined as follows: […]
1×10^5 cells/ml. of L1210 cells were suspended in RPMI medium containing 10% calf serum, pre-cultivated at 37° C. for 1 to 2 hours in a CO2 incubator and then the test compounds were added to the medium at various concentrations. After 15 min. of incubation, ^14 C-uridine (0.05 μCi/ml.) or ^14 C-thymidine (0.05 μCi/ml.) was added and incubated at 37° C. for 60 min. Trichloroacetic acid (TCA) (10%) was added to the incubation medium to stop the reaction and precipitate the acid-insoluble materials, and then the precipitate was washed three times with 5 to 10% […]. The radioactivity was measured and expressed as 50% inhibition concentration of incorporation.

L1210 leukemia = test: Antitumor activity in BDF1 mice inoculated with L1210 leukemia cells (Table 6); format: in vivo; conditions: once daily for 10 days
Description: As an example, BDF1 mice were inoculated intraperitoneally with 1×10^6 cells/mouse of L1210 leukemia cells.

L1210 cells [2] = test: animal or person; format: in vivo, CDF1 mice; conditions: once daily for 10 days; for response vs control in vivo at 0.15 mg/kg: 0.15 mg/kg/day i.p.; for response vs control in vivo at 0.31 mg/kg: 0.31 mg/kg/day i.p.; for response vs control in vivo at 0.625 mg/kg: 0.625 mg/kg/day i.p.; for response vs control in vivo at 1.25 mg/kg: 1.25 mg/kg/day i.p.; for response vs control in vivo at 2.5 mg/kg: 2.5 mg/kg/day i.p.
Protocol: D. Representative compounds of general formula I" were tested against experimental animal tumors as follows: […]
CDF1 mice were administered intraperitoneally (i.p.) with 1×10^5 cells/mouse of L1210 cells. After 24 hours had elapsed since inoculation, the mice were administered the test compounds intraperitoneally once daily for 10 consecutive days and observed for a 45 day period.
The antitumor activity was shown by the prolongation rate of survival day (T/C, %) to the survival day of control mice injected with physiological saline.

[3] = tested on: various experimental tumors; conditions: cited from earlier work
[4] = cited from earlier work
[5] = read-out: 50% Inhibition Concentration of 14C-Thymidine Incorporation
[6] = read-out: 50% Inhibition Concentration of 14C-Uridine Incorporation
[7] = Mus musculus, L1210, ip, 1080 h, read-out: Antitumor Activity (T/C, prolongation rate of survival day)

`COc1cccc2c1C(=O)c1c(O)c3c(c(O)c1C2=O)C[C@@](O)(C(=O)CO)C[C@@H]3O[C@H]1C[C@H](N)[C@H](O)[C@H](C)O1` [Adriamycin, adriamycin, reference compound] showed an inhibition at 0.1 µg/mL (L1210 leukemia cells) of 70.7%, an inhibition at 0.5 µg/mL (L1210 leukemia cells) of 84.2% and an IC50 (L1210 cells [1]; [5]) of 2.1 µg/mL (≈ 3.86 µM). The IC50 (L1210 cells [1]; [6]) was 0.5 µg/mL (≈ 0.92 µM), the “Antitumor Activity (T/C, prolongation rate of survival day)” value (“Antitumor Activity” for short) (L1210 leukemia; 0.15 mg./kg./day i.p.) was 128% and the “Antitumor Activity” value (L1210 leukemia; 0.3 mg./kg./day i.p.) was 165%. The “Antitumor Activity” value (L1210 leukemia; 5 mg./kg./day i.p.) was “toxic”, the response vs control in vivo at 0.15 mg/kg (L1210 cells [2]; [7]) was 130% and the response vs control in vivo at 0.31 mg/kg (L1210 cells [2]; [7]) was 147%. The response vs control in vivo at 0.625 mg/kg (L1210 cells [2]; [7]) was 239%, the response vs control in vivo at 1.25 mg/kg (L1210 cells [2]; [7]) was 272% and the response vs control in vivo at 2.5 mg/kg (L1210 cells [2]; [7]) was 351%. The response vs control in vivo at 5 mg/kg (L1210 cells [2]; Mus musculus, L1210, ip, 1080 h, 5 mg/kg/day i.p., read-out: Antitumor Activity (T/C, prolongation rate of survival day)) was 189%, the antitumor spectrum [3] was “broad antitumor spectrum against various experimental tumors” and the “side effects in clinical use” value ([4]; clinical antitumor agents) was “severe side effects such as alopecia, leukopenia and cardiotoxicity”.

For `COc1cccc2c1C(=O)c1c(O)c3c(c(O)c1C2=O)C[C@@](O)(C(C)=O)C[C@@H]3O[C@H]1C[C@H](N)[C@H](O)[C@H](C)O1` [Daunomycin, daunomycin, reference compound], the inhibition at 0.1 µg/mL (L1210 leukemia cells) was 68.8%, the inhibition at 0.5 µg/mL (L1210 leukemia cells) was 72.7% and the IC50 (L1210 cells [1]; [5]) was 0.7 µg/mL (≈ 1.33 µM). The IC50 (L1210 cells [1]; [6]) was 0.4 µg/mL (≈ 0.758 µM), the “Antitumor Activity” value (L1210 cells [2]; 5 mg/kg/day i.p.) was “Tox” and the response vs control in vivo at 0.15 mg/kg (L1210 cells [2]; [7]) was 118%. The response vs control in vivo at 0.31 mg/kg (L1210 cells [2]; [7]) was 132%, the response vs control in vivo at 0.625 mg/kg (L1210 cells [2]; [7]) was 145% and the response vs control in vivo at 1.25 mg/kg (L1210 cells [2]; [7]) was 191%. For the same compound, the response vs control in vivo at 2.5 mg/kg (L1210 cells [2]; [7]) was 138%, the antitumor spectrum [3] was “broad antitumor spectrum against various experimental tumors” and the “side effects in clinical use” value ([4]; in vivo) was “severe side effects such as alopecia, leukopenia and cardiotoxicity”.
